What was measured:
Experiment in all cases: KINOMEscan competition binding
Conditions in all cases: compound 10.0 µM
[1] = target: YES1 (human) (UniProt P07947)
[2] = system: ABL1 (human), P00519 [Q252H]
[3] = target: ABL1 (human) (UniProt P00519)
[4] = target: FGR (human) (UniProt P09769)
[5] = system: LRRK2 (human), Q5S007 [G2019S]
[6] = target: SIK3 (human) (UniProt Q9Y2K2)
[7] = target: CDK13 (human) (UniProt Q14004)
[8] = target: HIPK2 (human) (UniProt Q9H2X6)
[9] = system: PIK3CA (human), P42336 [E542K]
[10] = target: HIPK4 (human) (UniProt Q8NE63)
[11] = target: PLK2 (human) (UniProt Q9NYY3)
[12] = target: PKN3 (M.tuberculosis) (UniProt Q6P5Z2)
[13] = target: IRAK1 (human) (UniProt P51617)
Sequence of IRAK1 (human) (P51617 whole entry, looked up): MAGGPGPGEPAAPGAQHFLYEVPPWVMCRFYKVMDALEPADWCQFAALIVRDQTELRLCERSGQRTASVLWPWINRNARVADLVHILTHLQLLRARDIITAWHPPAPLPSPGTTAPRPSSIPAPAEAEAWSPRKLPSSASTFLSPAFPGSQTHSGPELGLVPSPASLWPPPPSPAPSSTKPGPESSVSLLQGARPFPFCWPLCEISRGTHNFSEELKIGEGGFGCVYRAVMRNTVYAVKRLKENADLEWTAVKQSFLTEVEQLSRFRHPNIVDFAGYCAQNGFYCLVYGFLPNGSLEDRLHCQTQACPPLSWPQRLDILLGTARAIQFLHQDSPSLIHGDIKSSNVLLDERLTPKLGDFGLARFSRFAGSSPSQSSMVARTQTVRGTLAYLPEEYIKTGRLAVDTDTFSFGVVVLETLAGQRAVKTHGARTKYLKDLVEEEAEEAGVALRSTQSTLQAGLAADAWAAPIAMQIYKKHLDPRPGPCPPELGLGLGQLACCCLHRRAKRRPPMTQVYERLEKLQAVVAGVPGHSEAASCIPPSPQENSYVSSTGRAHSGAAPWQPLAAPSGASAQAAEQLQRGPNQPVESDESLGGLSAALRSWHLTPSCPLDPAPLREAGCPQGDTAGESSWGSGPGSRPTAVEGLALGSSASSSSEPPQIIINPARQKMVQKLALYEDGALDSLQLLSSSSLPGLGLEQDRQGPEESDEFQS

[14] = target: MAP2K5 (human) (UniProt Q13163)
[15] = target: STK32A (human) (UniProt Q8WU08)
Sequence of STK32A (human) (Q8WU08 whole entry, looked up): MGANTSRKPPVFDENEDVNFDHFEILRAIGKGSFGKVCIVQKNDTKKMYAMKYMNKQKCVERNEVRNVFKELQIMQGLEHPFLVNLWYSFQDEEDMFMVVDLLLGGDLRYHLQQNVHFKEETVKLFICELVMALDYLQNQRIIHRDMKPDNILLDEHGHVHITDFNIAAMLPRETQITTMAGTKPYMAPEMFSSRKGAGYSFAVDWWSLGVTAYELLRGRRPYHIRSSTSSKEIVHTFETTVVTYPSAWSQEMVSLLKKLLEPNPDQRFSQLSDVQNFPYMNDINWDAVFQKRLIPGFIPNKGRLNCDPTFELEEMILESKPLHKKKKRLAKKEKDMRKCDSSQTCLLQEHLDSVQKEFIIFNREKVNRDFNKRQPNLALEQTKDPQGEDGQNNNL

[16] = target: MAP3K1 (human) (UniProt Q13233)
[17] = target: DCLK2 (human) (UniProt Q8N568)
[18] = target: TAOK2 (human) (UniProt Q9UL54)
[19] = target: MARK3 (human) (UniProt P27448)
Sequence of MARK3 (human) (P27448 whole entry, looked up): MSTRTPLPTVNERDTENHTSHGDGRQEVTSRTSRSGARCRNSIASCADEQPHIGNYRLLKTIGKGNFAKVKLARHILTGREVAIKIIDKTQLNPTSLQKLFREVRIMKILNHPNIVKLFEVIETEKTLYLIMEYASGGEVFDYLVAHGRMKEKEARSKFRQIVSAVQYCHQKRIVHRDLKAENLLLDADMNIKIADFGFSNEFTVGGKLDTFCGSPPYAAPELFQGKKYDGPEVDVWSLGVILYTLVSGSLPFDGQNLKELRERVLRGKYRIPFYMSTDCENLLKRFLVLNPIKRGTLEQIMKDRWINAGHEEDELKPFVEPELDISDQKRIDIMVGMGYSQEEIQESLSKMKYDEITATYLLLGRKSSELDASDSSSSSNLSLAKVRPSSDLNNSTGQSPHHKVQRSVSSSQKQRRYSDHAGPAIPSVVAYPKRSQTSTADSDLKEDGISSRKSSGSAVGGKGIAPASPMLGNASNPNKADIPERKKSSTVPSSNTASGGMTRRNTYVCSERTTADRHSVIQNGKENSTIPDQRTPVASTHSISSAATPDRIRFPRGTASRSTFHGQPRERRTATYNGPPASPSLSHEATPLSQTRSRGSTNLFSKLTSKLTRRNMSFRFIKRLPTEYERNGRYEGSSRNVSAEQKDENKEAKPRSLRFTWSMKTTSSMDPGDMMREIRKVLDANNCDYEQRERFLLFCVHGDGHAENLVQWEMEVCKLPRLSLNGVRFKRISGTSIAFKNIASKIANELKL

[20] = system: FLT3 (human), P36888 [R834Q]
[21] = system: MET (human), P08581 [M1250T]
[22] = target: MAP3K2 (human) (UniProt Q9Y2U5)
Sequence of MAP3K2 (human) (Q9Y2U5 whole entry, looked up): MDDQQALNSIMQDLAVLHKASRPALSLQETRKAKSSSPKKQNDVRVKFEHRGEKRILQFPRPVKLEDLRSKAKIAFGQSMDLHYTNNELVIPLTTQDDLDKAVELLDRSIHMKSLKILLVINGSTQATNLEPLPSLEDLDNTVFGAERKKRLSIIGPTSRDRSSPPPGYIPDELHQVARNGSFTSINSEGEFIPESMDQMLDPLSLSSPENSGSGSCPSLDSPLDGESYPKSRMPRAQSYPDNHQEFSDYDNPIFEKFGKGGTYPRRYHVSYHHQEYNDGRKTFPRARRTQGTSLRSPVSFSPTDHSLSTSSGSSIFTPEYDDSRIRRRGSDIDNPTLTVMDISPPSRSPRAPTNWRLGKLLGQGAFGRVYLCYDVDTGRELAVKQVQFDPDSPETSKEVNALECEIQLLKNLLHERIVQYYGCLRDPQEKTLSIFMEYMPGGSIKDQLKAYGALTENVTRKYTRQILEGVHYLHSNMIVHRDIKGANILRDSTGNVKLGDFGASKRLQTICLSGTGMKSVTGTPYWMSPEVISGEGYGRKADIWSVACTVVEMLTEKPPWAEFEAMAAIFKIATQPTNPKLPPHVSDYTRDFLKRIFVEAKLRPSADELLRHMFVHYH

[23] = target: LRRK2 (human) (UniProt Q5S007)
[24] = target: MAP3K13 (human) (UniProt O43283)
[25] = target: CRK2 (P.falciparum) (UniProt P61075)
Sequence of CRK2 (P.falciparum) (P61075 whole entry, looked up): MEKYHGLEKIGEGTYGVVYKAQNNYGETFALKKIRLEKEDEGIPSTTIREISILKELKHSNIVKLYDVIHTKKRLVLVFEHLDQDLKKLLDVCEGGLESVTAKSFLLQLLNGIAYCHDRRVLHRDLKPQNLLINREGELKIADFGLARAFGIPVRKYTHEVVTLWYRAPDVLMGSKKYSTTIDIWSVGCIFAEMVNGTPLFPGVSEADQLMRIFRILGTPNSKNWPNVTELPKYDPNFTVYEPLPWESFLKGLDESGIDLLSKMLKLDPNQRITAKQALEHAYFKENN

[26] = target: MTOR (human) (UniProt P42345)
[27] = target: SNRK (human) (UniProt Q9NRH2)
Sequence of SNRK (human) (Q9NRH2 whole entry, looked up): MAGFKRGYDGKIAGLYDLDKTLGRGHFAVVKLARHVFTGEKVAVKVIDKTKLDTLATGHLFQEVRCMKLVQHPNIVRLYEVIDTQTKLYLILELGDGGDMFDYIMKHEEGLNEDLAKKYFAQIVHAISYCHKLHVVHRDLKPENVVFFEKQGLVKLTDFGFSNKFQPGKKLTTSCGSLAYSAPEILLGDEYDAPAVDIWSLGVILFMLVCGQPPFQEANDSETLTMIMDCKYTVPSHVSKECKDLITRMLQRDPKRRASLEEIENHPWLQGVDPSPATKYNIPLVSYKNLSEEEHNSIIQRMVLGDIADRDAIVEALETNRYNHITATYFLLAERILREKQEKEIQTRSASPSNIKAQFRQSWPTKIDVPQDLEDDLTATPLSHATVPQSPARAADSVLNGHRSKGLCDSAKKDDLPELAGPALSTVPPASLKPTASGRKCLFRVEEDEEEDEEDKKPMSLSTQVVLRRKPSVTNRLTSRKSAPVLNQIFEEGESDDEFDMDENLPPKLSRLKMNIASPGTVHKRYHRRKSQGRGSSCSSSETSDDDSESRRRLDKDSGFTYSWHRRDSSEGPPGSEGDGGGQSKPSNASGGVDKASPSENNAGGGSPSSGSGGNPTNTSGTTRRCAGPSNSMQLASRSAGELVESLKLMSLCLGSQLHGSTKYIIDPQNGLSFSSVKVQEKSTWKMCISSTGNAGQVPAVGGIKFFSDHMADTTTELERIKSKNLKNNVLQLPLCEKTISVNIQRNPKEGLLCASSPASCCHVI

[28] = target: HUNK (human) (UniProt P57058)
[29] = target: DYRK1A (human) (UniProt Q13627)
[30] = system: EGFR (human), P00533 [T790M/L858R]
[31] = target: CDK4 CCND1 (human) (UniProt P11802+P24385)
[32] = target: MARK2 (human) (UniProt Q7KZI7)
[33] = target: CSNK1A1L (human) (UniProt Q8N752)
Sequence of CSNK1A1L (human) (Q8N752 whole entry, looked up): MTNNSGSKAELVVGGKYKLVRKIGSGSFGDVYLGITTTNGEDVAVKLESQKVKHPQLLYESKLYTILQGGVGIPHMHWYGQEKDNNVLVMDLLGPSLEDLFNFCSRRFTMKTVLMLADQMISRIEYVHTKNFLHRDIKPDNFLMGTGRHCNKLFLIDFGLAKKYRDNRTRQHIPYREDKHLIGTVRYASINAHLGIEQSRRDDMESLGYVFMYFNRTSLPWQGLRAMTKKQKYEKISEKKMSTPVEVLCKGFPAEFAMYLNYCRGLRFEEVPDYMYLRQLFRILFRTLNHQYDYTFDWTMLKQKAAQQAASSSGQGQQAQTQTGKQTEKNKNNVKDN

[34] = target: STK39 (human) (UniProt Q9UEW8)
[35] = target: PRPF4B (human) (UniProt Q13523)
[36] = target: SBK1 (human) (UniProt Q52WX2)
[37] = target: GRK1 (human) (UniProt Q15835)
[38] = target: NEK3 (human) (UniProt P51956)
[39] = system: EGFR (human), P00533 [T790M]
[40] = target: PAK3 (human) (UniProt O75914)
[41] = target: HIPK3 (human) (UniProt Q9H422)
[42] = system: CPK1 (P.falciparum)

Sequence of FGR (human) (P09769 whole entry, looked up): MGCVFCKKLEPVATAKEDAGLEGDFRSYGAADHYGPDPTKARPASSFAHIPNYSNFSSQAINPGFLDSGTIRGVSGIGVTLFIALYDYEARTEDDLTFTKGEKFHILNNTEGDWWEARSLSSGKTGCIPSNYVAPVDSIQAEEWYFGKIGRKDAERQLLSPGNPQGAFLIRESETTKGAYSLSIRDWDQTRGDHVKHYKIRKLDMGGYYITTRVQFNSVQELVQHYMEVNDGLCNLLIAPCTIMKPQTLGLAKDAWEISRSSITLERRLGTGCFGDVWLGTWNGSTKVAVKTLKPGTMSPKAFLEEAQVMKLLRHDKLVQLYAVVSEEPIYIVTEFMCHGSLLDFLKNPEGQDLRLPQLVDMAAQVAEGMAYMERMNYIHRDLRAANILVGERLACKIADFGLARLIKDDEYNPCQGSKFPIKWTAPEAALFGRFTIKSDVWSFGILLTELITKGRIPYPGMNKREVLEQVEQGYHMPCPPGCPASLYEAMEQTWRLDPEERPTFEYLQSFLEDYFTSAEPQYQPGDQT
Sequence of YES1 (human) (P07947 whole entry, looked up): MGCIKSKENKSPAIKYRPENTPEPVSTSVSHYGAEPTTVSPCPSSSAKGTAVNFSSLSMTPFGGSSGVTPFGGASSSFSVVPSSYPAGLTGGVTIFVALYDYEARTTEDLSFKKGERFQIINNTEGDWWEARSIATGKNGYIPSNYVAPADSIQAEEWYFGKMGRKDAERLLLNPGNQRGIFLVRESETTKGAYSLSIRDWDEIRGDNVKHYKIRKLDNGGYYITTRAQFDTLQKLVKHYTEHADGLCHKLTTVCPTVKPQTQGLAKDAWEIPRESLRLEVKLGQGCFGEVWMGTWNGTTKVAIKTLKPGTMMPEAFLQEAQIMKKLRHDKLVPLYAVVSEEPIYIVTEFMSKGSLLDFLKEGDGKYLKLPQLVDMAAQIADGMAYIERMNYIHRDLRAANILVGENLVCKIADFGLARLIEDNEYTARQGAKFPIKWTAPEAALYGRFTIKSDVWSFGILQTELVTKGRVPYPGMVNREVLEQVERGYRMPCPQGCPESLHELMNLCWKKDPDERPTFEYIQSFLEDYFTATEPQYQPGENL

COc1cc(N2CCC(N3CCN(C)CC3)CC2)ccc1Nc1ncc(Cl)c(Nc2ccccc2S(=O)(=O)C(C)C)n1
kinase still bound, per cent of control [1]: 0.1% | kinase still bound, per cent of control [2]: 2.2% | kinase still bound, per cent of control [3]: 7.3% | kinase still bound, per cent of control [4]: 2.8%

CCN1CCN(Cc2ccc(NC(=O)c3ccc(C)c(/C=C/c4cnc(Nc5cc(N6CCNCC6)nc(C)n5)cn4)c3)cc2C(F)(F)F)CC1
kinase still bound, per cent of control [5]: 75% | kinase still bound, per cent of control [6]: 100% | kinase still bound, per cent of control [7]: 46% | kinase still bound, per cent of control [1]: 1.4% | kinase still bound, per cent of control [8]: 49% | kinase still bound, per cent of control [9]: 94% | kinase still bound, per cent of control [10]: 15% | kinase still bound, per cent of control [11]: 69% | kinase still bound, per cent of control [12]: 100% | kinase still bound, per cent of control [13]: 50% | kinase still bound, per cent of control [14]: 0.1% | kinase still bound, per cent of control [15]: 100% | kinase still bound, per cent of control [16]: 75% | kinase still bound, per cent of control [17]: 100% | kinase still bound, per cent of control [18]: 5.7% | kinase still bound, per cent of control [19]: 58% | kinase still bound, per cent of control [20]: 8.6% | kinase still bound, per cent of control [21]: 89% | kinase still bound, per cent of control [22]: 0.4% | kinase still bound, per cent of control [23]: 63% | kinase still bound, per cent of control [24]: 6.6% | kinase still bound, per cent of control [25]: 55% | kinase still bound, per cent of control [26]: 100% | kinase still bound, per cent of control [27]: 84% | kinase still bound, per cent of control [28]: 93% | kinase still bound, per cent of control [29]: 44% | kinase still bound, per cent of control [30]: 65% | kinase still bound, per cent of control [31]: 100% | kinase still bound, per cent of control [32]: 100% | kinase still bound, per cent of control [33]: 99% | kinase still bound, per cent of control [34]: 100% | kinase still bound, per cent of control [35]: 85% | kinase still bound, per cent of control [36]: 82% | kinase still bound, per cent of control [4]: 4.5% | kinase still bound, per cent of control [37]: 100% | kinase still bound, per cent of control [38]: 59% | kinase still bound, per cent of control [39]: 9.4% | kinase still bound, per cent of control [40]: 14% | kinase still bound, per cent of control [41]: 48% | kinase still bound, per cent of control [42]: 0.2%

CCOc1cc(N2CCC(N3CCCCC3)CC2)ccc1Nc1nc(Nc2ccccc2S(=O)(=O)C(C)C)c2cn[nH]c2n1
kinase still bound, per cent of control [5]: 4.8% | kinase still bound, per cent of control [6]: 100% | kinase still bound, per cent of control [7]: 100% | kinase still bound, per cent of control [1]: 84% | kinase still bound, per cent of control [8]: 89% | kinase still bound, per cent of control [9]: 100% | kinase still bound, per cent of control [10]: 44% | kinase still bound, per cent of control [11]: 100% | kinase still bound, per cent of control [12]: 75% | kinase still bound, per cent of control [13]: 93% | kinase still bound, per cent of control [14]: 55% | kinase still bound, per cent of control [15]: 32% | kinase still bound, per cent of control [16]: 82% | kinase still bound, per cent of control [17]: 19% | kinase still bound, per cent of control [18]: 66% | kinase still bound, per cent of control [19]: 100% | kinase still bound, per cent of control [20]: 100% | kinase still bound, per cent of control [21]: 100% | kinase still bound, per cent of control [22]: 28% | kinase still bound, per cent of control [23]: 0.65% | kinase still bound, per cent of control [24]: 100% | kinase still bound, per cent of control [25]: 100% | kinase still bound, per cent of control [26]: 86% | kinase still bound, per cent of control [27]: 40% | kinase still bound, per cent of control [28]: 100% | kinase still bound, per cent of control [29]: 63% | kinase still bound, per cent of control [30]: 25% | kinase still bound, per cent of control [31]: 82% | kinase still bound, per cent of control [32]: 86% | kinase still bound, per cent of control [33]: 78% | kinase still bound, per cent of control [34]: 37% | kinase still bound, per cent of control [35]: 100% | kinase still bound, per cent of control [36]: 57% | kinase still bound, per cent of control [4]: 82% | kinase still bound, per cent of control [37]: 98% | kinase still bound, per cent of control [38]: 76% | kinase still bound, per cent of control [39]: 0.25% | kinase still bound, per cent of control [40]: 59% | kinase still bound, per cent of control [41]: 79% | kinase still bound, per cent of control [42]: 44%

CCN1CCN(Cc2ccc(NC(=O)c3ccc(C)c(Oc4ccnc5[nH]ccc45)c3)cc2C(F)(F)F)CC1
kinase still bound, per cent of control [1]: 1.6% | kinase still bound, per cent of control [2]: 0.4% | kinase still bound, per cent of control [3]: 0.1% | kinase still bound, per cent of control [4]: 1.2%
